{"source": "patent US7632506B2", "about": "“Identification of new NY-ESO-1 epitopes recognized by CD4+ T-cells” (Ludwig Institute for Cancer Research, priority 2005, dated 2009)", "test_system": "CD4+ T cells", "test": "IFN-γ ELISPOT of CD4+ T cells presensitized with overlapping NY-ESO-1 18 mer peptides", "format": "cell-based, human"}
{"substance": "P55-72: synthetic 18 mer peptide, amino acids 55-72 of NY-ESO-1 (GPGGGAPRGPHGGAASGL; UniProt P78358 55-72, looked up, fragment) [Peptide P55-72]", "values": [{"measurement": "Patient T cells 1", "setting": "IFN-γ ELISPOT, day 12, CD4+ T cells of patient 1, autologous peptide pulsed EBV-B cells as targets", "value": "+ (+ indicates >50 spots (all + scores indicated were >100 spots))"}, {"measurement": "Patient T cells 2", "setting": "IFN-γ ELISPOT, day 12, CD4+ T cells of patient 2, autologous peptide pulsed EBV-B cells as targets", "value": "+ (+ indicates >50 spots (all + scores indicated were >100 spots))"}, {"measurement": "Patient T cells 3", "setting": "IFN-γ ELISPOT, day 12, CD4+ T cells of patient 3, autologous peptide pulsed EBV-B cells as targets", "value": "+ (+ indicates >50 spots (all + scores indicated were >100 spots))"}, {"measurement": "patients whose CD4+ T cells recognized the peptide", "setting": "three patients tested", "value": "all three patients"}]}
